Experimental findings from patent US20240390451A1, “MODIFIED TRIPEPTIDES FOR USE IN THE TREATMENT OF A NON-ENVELOPED VIRUS INFECTION” (PHARMA HOLDINGS AS, priority 2021, published 2024) are described below.

“And” between values parts separate entries of the source, which are not always exact repeats. Equal values may be shown once. Read-outs that look alike come from different tables or passages of the source.

Data set [1] relates to Rhinovirus (HRV-A60), Strain: 2268-CV37. Put plainly: Antiviral activity of LTX-7 against Rhinovirus: 1 hour incubation, filtration, TCID50 endpoint dilution on HeLaM cells. The note with it: for % Reduction: as compared to the PBS control; for % Reduction / Log decrease / Rounded %: contact time 1 hour, 1% LTX-7 or 0.25% SDS; for TCID50/ml ± SEM: average virus titre recovered, contact time 1 hour at RT, 1% LTX-7 (w/v) in PBS or 0.25% SDS in PBS; for Log decrease: decrease in infectivity as compared to the PBS control; for Rounded %: rounded % reduction as compared to the PBS control. It counts as cell-based, Human Rhinovirus 60. On the procedure: The Rhinovirus used was from BEI Resources: Rhinovirus (HRV-A60), Strain: 2268-CV37 (BEI Resources Catalogue Number NR-51447).
To test whether LTX-7 has antiviral activity against Rhinovirus, 5×10^5 infectious units of Rhinovirus (40 μl) were incubated with four volumes of 1% LTX-7 (w/v) dissolved in PBS (160 μl) or a PBS (Phosphate-buffered saline) negative control. As a positive control, a buffer containing 0.25% SDS (Sodium dodecyl sulphate) in PBS was tested in parallel. Each sample and the PBS control were tested in triplicates.
After 1 hour at room temperature (RT), the incubation was stopped by adding an excess of cold assay media (5 ml), and the formulation was physically separated from the virus through a filter (Sartorius VivaSpin 6, 100,000 MWCO, PES (Sartorius, VS0642)) to reduce cytotoxicity on the assay cells. The assay media was DMEM (Gibco 61965-026) supplemented with 2% FBS (Gibco 10500-064), 20 mM Hepes (Gibco 15630-056) and 1× p/s (Gibco 15070063).
The starting solution for the serial dilution (i.e. the neat (or undiluted) solution or 10^0 solution) was obtained by re-suspending the virus that was separated via the filtration step in 1 ml of assay media. […] Appropriate controls were also performed.

In data set [2] the test system is HeLaM cells. To be noted: dilution at which cytotoxicity on HeLaM cells was observed, without virus, after filtration, 1% LTX-7 (w/v) in PBS or 0.25% SDS.
Description: A parallel test where the same procedure was carried out in the absence of virus was included to determine any residual cytotoxic effect of LTX-7 on the assay cells.
Data set [3] relates to Rhinovirus 60, 2268-CV37. Description: Antiviral activity of 1% LTX-109 against Rhinovirus: 1 hour incubation, filtration, TCID50 endpoint dilution on HeLa cells. To be noted: for TCID50/ml ± SEM: average virus titre recovered after 1 hour incubation, 1% LTX-109 (w/v) in PBS or 0.25% SDS, triplicate; for Log decrease: decrease in infectivity as compared to the PBS control; for Log decrease / Percentage: 1 hour; for Log decrease / Log / Percentage: 1% LTX-109 or 0.25% SDS; for Log: log of recovered virus titre after 1 hour incubation; for Percentage: reduction in infectivity as compared to the PBS control. It counts as cell-based, Human Rhinovirus 60. Here is the method: (§1) The Rhinovirus used was from BEI Resources: Rhinovirus 60, 2268-CV37 (Catalogue No. NR-51447).
To test whether 1% LTX-109 (w/v) has antiviral activity against Rhinovirus, 2.24×10^5 infectious units of Rhinovirus (40 μl) were incubated with four volumes of 1% LTX-109 dissolved in PBS (160 μl), alongside a PBS (Phosphate-buffered saline) control and a 0.25% SDS (Sodium dodecyl sulphate) positive control. The treatments were performed in triplicate.
After 1 hour, the incubation was stopped by adding an excess of media, and the liquid was filtered through a filter (Sartorius VivaSpin 6) to separate the virus in order to reduce cytotoxicity on the assay cells. The assay media was DMEM (Gibco 61965-026) supplemented with 2% FBS (Gibco 10500-064), 20 mM Hepes (Gibco 15630-056) and 1×p/s (Gibco 15070063).
(§2) Appropriate controls were also performed.

The subject of data set [4] is Rhinovirus 60, 2268-CV37. Description: Antiviral activity of 3% LTX-109 against Rhinovirus: 1 hour incubation, dilution in media, TCID50 endpoint dilution on HeLa cells. It counts as cell-based, Human Rhinovirus 60. To be noted: for Log decrease: decrease in infectivity as compared to the PBS control; for Log decrease / Percentage: 1 hour; for Log decrease / Log / Percentage: 3% LTX-109 or 0.25% SDS; for Log: log of recovered virus titre after 1 hour incubation; for Percentage: reduction in infectivity as compared to the PBS control. On the procedure:
as §1
To test whether 3% LTX-109 (w/v) has antiviral activity against Rhinovirus, 9×10^5 infectious units of Rhinovirus (40 μl) were incubated with four volumes of 3% LTX-109 dissolved in PBS (160 μl), alongside a PBS (Phosphate-buffered saline) control and a 0.25% SDS (Sodium dodecyl sulphate) positive control. The treatments were performed in triplicate.
After 1 hour, the incubation was stopped by adding 50 μl of mixture to 5 ml of media. The assay media was DMEM (Gibco 61965-026) supplemented with 2% FBS (Gibco 10500-064), 20 mM Hepes (Gibco 15630-056) and 1× p/s (Gibco 15070063).
as §2

The subject of data set [5] is Human Rhinovirus 14, strain 1059. Description: Antiviral (virucidal) activity of 1% LTX-109 against Human Rhinovirus 14: 1 hour incubation, filtration, TCID50 on HeLaM cells. The data set is classed as cell-based. To be noted: for TCID50/ml ± SEM: average virus titre recovered, contact time 1 hour at RT, 1% LTX-109 (triplicate) or 2.5% glutaraldehyde in PBS (single replicate); for Log decrease: decrease in infectivity as compared to the PBS control; for Log decrease / % Reduction: contact time 1 hour, 1% LTX-109 or 2.5% glutaraldehyde; for % Reduction: reduction in Rhinovirus 14 infectivity as compared to the PBS control. On the procedure: The virus used was from ATCC: Human Rhinovirus 14, strain 1059 (ATCC VR-284, lot number 70049530).
To test whether 1% LTX-109 has virucidal activity against Human Rhinovirus 14, 4×10^7 infectious units of Human Rhinovirus 14 in 40 μl were incubated with four volumes (160 μl) of 1% LTX-109 or a PBS negative control. As a positive control, a buffer containing 2.5% glutaraldehyde in PBS was tested in parallel. Both LTX-109 and negative control were tested in triplicates. The positive control was tested in a single replicate.
After 1 hour at room temperature (RT), the incubation was stopped by adding an excess of cold assay media (5 ml), and the formulation was physically separated from the virus through a filter (Sartorius VivaSpin 6, 100,000 MWCO, PES) to reduce cytotoxicity on the assay cells. The assay media was DMEM (Gibco 10566016) supplemented with 2% FBS (Gibco 10500064), 20 mM HEPES (Gibco 15630056) and 1× PenStrep (Gibco 15070063).
Concentrated virus was re-suspended in 1 ml of assay media and infectious virus was quantified through a serial dilution (10^−1 to 10^−8) on a monolayer of HeLaM cells plated the day before at 8,000 cells/100 μl/well. […] Specifically, on a 96 well plate, 225 μl of media were placed in each well of 4 columns (32 wells in total). In the 4 wells of the top row (row A), 25 μl of re-suspended virus was added and mixed. With a multichannel pipette, 25 μl of media was then taken from the 4 wells in row A to the next 4 wells in row B, and then from row B to row C, and so on until row H, creating a serial dilution (10^−1 to 10^−8). 200 μl from each well was then added to separate wells containing a monolayer of HeLa M cells. Appropriate controls were also performed.

The subject of data set [6] is HeLaM cells. Put plainly: Parallel test without virus: residual cytotoxic effect of LTX-109 on the assay cells (Example 4). To be noted: dilution at which cytotoxicity on HeLaM cells was observed, after filtration and re-suspension, 1% LTX-109 or 2.5% glutaraldehyde in PBS. On the procedure:
A parallel test where the same procedure was carried out in the absence of virus was included to determine any residual cytotoxic effect of LTX-109 on the assay cells.

Data set [7] deals with HeLa cells. To be noted: dilution at which cytotoxicity on HeLa cells was observed, without virus, after filtration, 1% LTX-109 (w/v) in PBS or 0.25% SDS.
Description: Infectious virus was quantified through a serial dilution of the filtrate (a series of ten-fold dilutions) on monolayers of HeLa cells in microtitre plates (HeLa cells are human cells capable of displaying a cytopathic effect (CPE) upon viral infection). For each dilution of the virus in the dilution series, eight wells of the microtitre plate were tested (i.e. each dilution was applied to eight separate wells, each well containing a HeLa cell monolayer). Appropriate controls were also performed. […] The TCID50 (TCID50/ml) assay (Tissue Culture Infectious Dose 50 assay) is a type of endpoint dilution assay that is well known in the art and routinely used to quantitatively measure virus titres. TCID50/ml provides a measure of infectious units of virus/ml. “/ml” refers to /ml of the starting solution (i.e. neat/undiluted solution) mentioned above. A parallel test where the same procedure was carried out in the absence of virus was included to determine any residual cytotoxic effect of the formulation on the assay cells.
The subject of data set [8] is HeLa cells. To be noted: dilution at which cytotoxicity on HeLa cells was observed, without virus, after dilution, 3% LTX-109 (w/v) in PBS or 0.25% SDS.
Description: A parallel test where the same procedure was carried out in the absence of virus was included to determine any residual cytotoxic effect of the formulation on the assay cells.
Where [9] appears, read: listed as POSITIVE CONTROL (SDS), sulphate.

Consider `N=C(N)NCCCC(N)C(=O)NC(Cc1ccc(-c2ccc3ccccc3c2)cc1)C(=O)NC(CCCNC(=N)N)C(=O)NCCc1ccccc1` (stereo not drawn) [LTX-7, Arg-Phe(4-(2-Naphthyl))-Arg-NH—CH2—CH2-Ph], for which, in data set [1], the “% Reduction” value amounted to 95.791%; the “TCID50/ml ± SEM” value was 3.86E+03 TCID50/ml and 3.86E+03 ± 1.14E+03 TCID50/ml; the Log decrease is listed as 1.33 logs. Moreover, the Cytotoxicity result in the data set with HeLaM cells [2] was “observed (only) with the neat application and only cytotoxic before any serial dilutions are performed and Neat”.
Consider `CC(C)(C)c1cc(C(C)(C)C)c2[nH]c(C(C)(C)C)c(CC(NC(=O)C(N)CCCNC(=N)N)C(=O)NC(CCCNC(=N)N)C(=O)NCCc3ccccc3)c2c1` (stereo not drawn) [LTX-109], for which the “TCID50/ml ± SEM” value in the data set on Rhinovirus 60, 2268-CV37 [3] was 4.8E+03 TCID50/ml and 4.80E+03 ± 8.21E+02 TCID50/ml; in data set [5], 1.80E+06 TCID50/ml; in data set [5] (listed as 1% LTX-109) it was 1.80E+06 (±3.08 ± 05) TCID50/ml. Moreover, the Log decrease with Rhinovirus 60, 2268-CV37 [3] came out at 1.9 logs; in the data set with Rhinovirus 60, 2268-CV37 [4], 1.9 logs; in data set [5], 1.05 logs. The Log was determined as 3.7 with Rhinovirus 60, 2268-CV37 [3] and 2.3 in the data set with Rhinovirus 60, 2268-CV37 [4]. Also, the Percentage with Rhinovirus 60, 2268-CV37 [3] came out at 98.89%; with Rhinovirus 60, 2268-CV37 [4], 98.87%. Moreover, the “% Reduction” value in data set [5] was 91.2%; in data set [5] (listed as 1% LTX-109), 91.2% and 91.17%. In addition, the Cytotoxicity is 10^−1 in the data set with HeLaM cells [6]; “only cytotoxic before any serial dilutions are performed” with HeLa cells [7]; “observed (only) with the neat application and Neat” in the data set with HeLa cells [7] (listed as 1% LTX-109); “only cytotoxic before any serial dilutions are performed” in the data set with HeLa cells [8]; “Neat” with HeLa cells [8] (listed as 3% LTX-109); “observed (only) with the neat application” in the data set on HeLa cells [8] (listed as 3% formulation).
As for `O=CCCCC=O` [Positive Control, glutaraldehyde, reference compound], in data set [5], the “TCID50/ml ± SEM” value is listed as 3.75E+01 TCID50/ml, the “Log decrease” value is recorded as 5.74 logs and the “% Reduction” value was 99.9998%. For the same molecule, the “% Reduction” value in data set [5] (listed as 2.5% glutaraldehyde in PBS) is listed as ~99.9%. Besides, in the data set on HeLaM cells [6], the Cytotoxicity result is recorded as “Neat”.
As for `CCCCCCCCCCCCOS(=O)(=O)[O-].[Na+]` [SDS, Sodium dodecyl sulphate, reference compound], the “TCID50/ml ± SEM” value with Rhinovirus 60, 2268-CV37 [3] was 1.00E+02 TCID50/ml; with Rhinovirus 60, 2268-CV37 [4] (average virus titre recovered after 1 hour incubation, 3% LTX-109 (w/v) in PBS or 0.25% SDS, triplicate) it was 1.58E+01 TCID50/ml; in data set [1] (setting [9]), 1.58E+01 (SEM ND) TCID50/ml; in data set [1] (sulphate) it was 1.58E+01 TCID50/ml. The Log decrease with Rhinovirus 60, 2268-CV37 [3] was determined as 3.6 logs; in the data set with Rhinovirus 60, 2268-CV37 [4] it was 3.0 logs; in data set [1], 3.67 logs. Further, the Log in the data set on Rhinovirus 60, 2268-CV37 [3] was 2.0; with Rhinovirus 60, 2268-CV37 [4], 1.2. In addition, the Percentage with Rhinovirus 60, 2268-CV37 [3] was 99.98%; in the data set on Rhinovirus 60, 2268-CV37 [4] it was 99.91%. The “% Reduction” value in data set [1] is given as 99.983%. Further, the Rounded % in data set [1] (setting [9]) is 99.9%; in data set [1] (sulphate) it was ~99.9%. Moreover, the Cytotoxicity result with HeLa cells [7] is “Neat”; in the data set on HeLa cells [8], “Neat”; in the data set with HeLaM cells [2] (setting [9]), “Neat”; in the data set on HeLaM cells [2] (sulphate), “observed (only) with the neat application”.
